From patent publication US12291502B2, “Topoisomerase II-alpha inhibitors and methods of treating cancer using the same” (The Regents of the University of Colorado, priority 2019, dated 2025)
Like-named read-outs stand apart in the source and are kept apart here.

What was measured:
[1] = target: T1, Human TOP2A (Homo sapiens, UniProt P11388); assay: TOP2A DNA decatenation assay (kDNA, agarose gel); type: biochemical; settings: for TOP2A inhibition, result in words: decatenation screen at 30 μM
T1 construct: purchased TopoGEN (Buena Vista, CO)
T1 sequence (P11388 whole entry): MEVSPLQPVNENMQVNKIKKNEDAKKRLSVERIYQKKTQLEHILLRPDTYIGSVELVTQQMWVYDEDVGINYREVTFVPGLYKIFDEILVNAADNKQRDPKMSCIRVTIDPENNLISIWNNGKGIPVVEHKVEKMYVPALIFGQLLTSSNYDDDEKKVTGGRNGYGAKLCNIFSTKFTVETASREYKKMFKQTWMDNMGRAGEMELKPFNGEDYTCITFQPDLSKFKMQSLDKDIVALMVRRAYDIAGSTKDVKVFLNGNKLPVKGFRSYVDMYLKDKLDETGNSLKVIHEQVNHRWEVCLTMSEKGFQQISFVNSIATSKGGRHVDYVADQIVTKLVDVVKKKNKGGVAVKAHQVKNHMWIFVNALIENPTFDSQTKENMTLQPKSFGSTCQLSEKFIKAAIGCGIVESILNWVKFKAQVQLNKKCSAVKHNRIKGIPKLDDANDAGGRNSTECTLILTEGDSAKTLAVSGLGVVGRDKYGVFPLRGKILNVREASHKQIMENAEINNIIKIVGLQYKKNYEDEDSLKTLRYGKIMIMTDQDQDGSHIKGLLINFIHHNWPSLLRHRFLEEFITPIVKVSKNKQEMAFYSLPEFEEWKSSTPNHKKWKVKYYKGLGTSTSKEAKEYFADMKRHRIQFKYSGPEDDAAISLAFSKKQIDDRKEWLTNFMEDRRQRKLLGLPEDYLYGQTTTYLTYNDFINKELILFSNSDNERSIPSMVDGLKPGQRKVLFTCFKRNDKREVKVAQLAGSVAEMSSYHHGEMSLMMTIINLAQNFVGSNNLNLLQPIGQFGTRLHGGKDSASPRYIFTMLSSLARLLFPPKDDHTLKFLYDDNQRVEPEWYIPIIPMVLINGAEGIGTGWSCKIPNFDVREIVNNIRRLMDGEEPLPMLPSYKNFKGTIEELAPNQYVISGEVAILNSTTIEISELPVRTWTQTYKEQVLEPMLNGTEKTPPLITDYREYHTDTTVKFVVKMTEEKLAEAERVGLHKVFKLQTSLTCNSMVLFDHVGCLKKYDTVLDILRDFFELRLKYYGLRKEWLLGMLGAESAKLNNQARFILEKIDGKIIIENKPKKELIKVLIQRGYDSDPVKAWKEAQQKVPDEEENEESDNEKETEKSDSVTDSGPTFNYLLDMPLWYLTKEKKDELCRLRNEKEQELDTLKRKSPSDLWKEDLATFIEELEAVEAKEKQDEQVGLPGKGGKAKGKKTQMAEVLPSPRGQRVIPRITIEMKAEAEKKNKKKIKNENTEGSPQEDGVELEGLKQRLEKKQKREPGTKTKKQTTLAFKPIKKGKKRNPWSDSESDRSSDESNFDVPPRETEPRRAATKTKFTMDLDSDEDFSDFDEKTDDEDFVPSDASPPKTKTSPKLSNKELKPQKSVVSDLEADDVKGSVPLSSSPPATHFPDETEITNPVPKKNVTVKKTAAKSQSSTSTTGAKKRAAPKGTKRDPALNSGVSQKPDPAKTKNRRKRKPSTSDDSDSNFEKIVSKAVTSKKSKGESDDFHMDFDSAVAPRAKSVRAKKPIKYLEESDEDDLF
Experimental: Inhibition of TOP2A activity. Human TOP2A, kDNA, and assay buffers were obtained from TopoGEN (Buena Vista, CO). The synthesized compounds were screened for their TOP2A inhibitory activity by the intensity of DNA decatenation bands on a DNA gel when compared to the vehicle. Compounds were initially incubated with TOP2A (3 U/reaction) for 20 min at a 30 μM and 1.2% DMSO concentration in a 37° C. incubator without CO2.
The decatenation reaction was initiated immediately after by adding 2 mM ATP and 35 ng/reaction of kDNA, then incubated for 1 hour in a 37° C. water bath. The samples were loaded into a 0.8% agarose gel in 1× Tris-Borate-EDTA (TBE) at a 0.2 μg/mL ethidium bromide concentration and allowed to run in an electrophoretic chamber for 1 hour at 100V. Compounds with the highest inhibitory activity were selected for 2-fold serial dilution dose-response assays (58.6 nM-30 μM). The dose-response assays followed the same protocol with the exception of 4 U/reaction of TOP2A.
Inhibition studies of TOP2A and observed structure activity relationships (SAR). DNA catenation/decatenation or linking/unlinking of DNA is one of the main TOP2A functions essential for regulating DNA topology, and this is ATP dependent. […] Thus, as a starting point, the synthesized analogs were screened against TOP2A-dependent decatenation using 30 μM fixed concentrations, and the DNA from reactions were resolved on 0.8% agarose gels containing ethidium bromide.
Moreover, these studies provided interesting SAR, which shed light on the potential lead drug target binding interactions and affinity, biological activity, and future drug design optimization with this unique class of TOP2A inhibitors.
(§1) TOP2A decatenation assay. Human TOP2A, kDNA, and assay buffers were obtained from TopoGEN (Buena Vista, CO). The synthesized compounds were screened for their TOP2A inhibitory activity by the intensity of DNA decatenation bands on a DNA gel when compared to the vehicle. Compounds were initially incubated with TOP2A (3 U/reaction) for 20 min at a 30 μM and 1.2% DMSO concentration in a 37° C. incubator without CO2. The decatenation reaction was initiated immediately after by adding 2 mM ATP and 35 ng/reaction of kDNA, then incubated for 1 h in a 37° C. water bath. The samples were loaded into a 0.8% agarose gel in 1× Tris-Borate-EDTA (TBE) at a 0.2 μg/mL ethidium bromide concentration and allowed to run in an electrophoretic chamber for 1 h at 100V. Compounds with the highest inhibitory activity were selected for 2-fold serial dilution dose-response assays (58.6 nM-30 μM). The dose-response assays followed the same protocol with the exception of 4 U/reaction of TOP2A,
as §1, with “assays (53.6” for “assays (58.6”, “of TOP2A.” for “of TOP2A,”

[2] = tested on: E-cadherin promoter activity (EcadPro-RFP) in SW620 cells; assay: EcadPro-RFP (mCherry) EMT reporter assay; type: cell-based; settings: Homo sapiens, SW-620; Table 3; SW620 Cells; read-out: E-cadherin Up-regulation EC50
Text: (§2) VimPro-GFP and EcadPro-RFP reporter assays. […] 35(38): p. 4990-9.]
as §2

[3] = tested on: vimentin promoter activity (VimPro-GFP) in SW620 cells; assay: VimPro-GFP EMT reporter assay; settings: Homo sapiens, SW-620, read-out: Vimentin Down-regulation EC50 (μM)
Experimental: VimPro-GFP and EcadPro-mCherry reporter assays. VimPiro-GFP: SW620 cells were first transduced with NucLight Red virus (Essen BioSciences) and selected with Zeocin at 200 μg/mL, and then transduced with pCDH-VimPro-GFP-EF1-puro virus and selected with puromycin at 4 μg/mL. The dual fluorescently labeled cells were plated and treated in 3D tumor organoid as described. Tumor organoid images were recorded every 2 hours over a 72 hours period using an incucyte ZOOM content imaging system (Essen BioSciences) or PerkinElmer Phenix imager (PerkinElmer).
Analogs were also assessed for their ability to modulate or reverse EMT using VimPro-GFP and EcadPro-RFP SW620 reporter cells cultured as tumor organoids, determining EC50 dose responses over 72 hours (Table 2).
VimPro-GFP and EcadPro-RFP reporter assays. Stable VimPro-GFP or EcadPro-RFP SW620 reporter cells were generated using pCDH-VimPro-GFP-EF1-puro virus or pCDH-EcadPro-mCherry-EF1-puro virus as previously reported. […] Transduced cells were selected with puromycin at 2 μg/mL. The stable fluorescent labeled reporter cells were then used to generate tumor organoids as described. Tumor organoids were then treated with TOP2A inhibitors at 10 μM for an additional 72 h. Following treatment, tumor organoids were stained with 16 μM of Hoechst 33342 for 1 h, which functions as a nuclear stain for imaging segmentation. Images were taken with a 5× air objective. Z stacks were set at 20 μm apart for a total of 7 layers. Imaging analysis was performed using an Opera Phenix high content screening (HCS) system and Harmony high-content imaging and analysis software interface (PerkinElmer, MA). Nuclei were identified with Hoechst 33342 stain within each layer, and cells were found with either GFP or mCherry channel. The intensities of each fluorescence channel within the cells were calculated and thresholds were set based on the background intensities. Percentages of GFP or mCherry positive cells were calculated and normalized to the DMSO treated group.
VimPro-GFP and EcadPro-RFP reporter assays. Stable VimPro-GFP or EcadPro-RFP SW620 reporter cells were generated using pCDH-VimPro-GFP-EF1-puro virus or pCDH-EcadPro-mCherry-EF1-puro virus as previously reported. […] Transduced cells were selected with puromycin at 2 μg/mL. The stable fluorescent labeled reporter cells were then used to generate tumor organoids as described. Tumor organoids were then treated with TOP2A inhibitors at 10 μM for an additional 72 h. Following treatment, tumor organoids were stained with 16 μM of Hoechst 33342 for 1 h, which functions as a nuclear stain for imaging segmentation. Images were taken with a 5× air objective.

[4] = 1 h, Table 1, decatenation, 30 μM fixed concentration, read-out: % Inhibition TOP2A (30 μM)
[5] = Table 1, decatenation dose response, read-out: % Inhibition TOP2A (IC50 Values)
[6] = Table 1, decatenation, 30 μM fixed concentration
[7] = Table 3, 30 μM, read-out: % TOP2A Decatenation inhibition (30 μM)
[8] = Table 3, read-out: TOP2A Inhibition IC50

SMILES: CC(=O)Nc1ccc2c(-c3ccsc3)ccnc2c1O [Analog 58]
- inhibition at 30 µM [1, 4]: 92%
- IC50 [1, 5]: 5 µM
- TOP2A inhibition, result in words [1]: improves activity compared to the 3-furanyl analog 56

SMILES: CC(=O)Nc1ccc2c(-c3cccc(F)c3)ccnc2c1O [Analog 29]
- inhibition at 30 µM [1, 4]: 100%
- IC50 [1, 5]: 7.8 µM
- TOP2A inhibition, result in words [1]: potent inhibition of TOP2A activity

SMILES: CC(=O)Nc1ccc2c(-c3cccc(C(F)(F)F)c3)ccnc2c1O [Analog 31]
- IC50 [1, 5]: 3.4 µM
- % Inhibition TOP2A (30 μM) [1, 6]: 97.0%
- TOP2A inhibition, result in words [1]: excellent inhibitory activity

SMILES: CC(=O)Nc1ccc2c(Nc3cccc4[nH]ccc34)ccnc2c1O [AA-29-147]
- EC50 [2]: 146 µM
- EC50 [3]: 14.8 µM

SMILES: CC(=O)Nc1ccc2c(Nc3ccc4[nH]c(C)cc4c3)ccnc2c1O [AA-29-155]
- EC50 [2]: 128 µM
- EC50 [3]: 9.56 µM

SMILES: CC(=O)Nc1ccc2c(Nc3cccc(C(F)(F)F)c3)ccnc2c1O [AA-29-157]
- EC50 [2]: 180 µM
- EC50 [3]: 29.9 µM

SMILES: CC(=O)Nc1cccc(-c2ccnc3c(O)c(NC(C)=O)ccc23)c1 [Analog 36]
- % Inhibition TOP2A (30 μM) [1, 6]: 3.0%
- TOP2A inhibition, result in words [1]: significant loss of activity

SMILES: CC(=O)Nc1ccc2c(Nc3ccc4[nH]ccc4c3)ccnc2c1O [AA-29-136]
- inhibition at 30 µM [1, 7]: 90%
- EC50 [2]: 8.4 µM
- EC50 [3]: 4.1 µM

SMILES: COc1ccc(F)cc1-c1ccnc2c(OC)c(NC(C)=O)ccc12 [Analog 6]
- % Inhibition TOP2A (30 μM) [1, 6]: 0.0%

SMILES: CC(=O)Nc1ccc2c(NC3CCC3)ccnc2c1O [AA-34-132]
- inhibition at 30 µM [1, 7]: 94%
- IC50 [1, 8]: 6.56 µM
- EC50 [2]: 100 µM
- EC50 [3]: 27.7 µM

SMILES: CC(=O)Nc1ccc2c(-c3cc(Cl)ccc3O)ccnc2c1O [Analog 38]
- % Inhibition TOP2A (30 μM) [1, 6]: 0.0%
- TOP2A inhibition, result in words [1]: no activity was observed

SMILES: CC(=O)Nc1ccc2c(NC3CCCCCC3)ccnc2c1O [AA-34-130]
- inhibition at 30 µM [1, 7]: 100%
- IC50 [1, 8]: 1.53 µM
- EC50 [2]: 36.5 µM
- EC50 [3]: 59 µM

SMILES: CC(=O)Nc1ccc2c(Nc3cc(O)ccc3F)ccnc2c1O [AA-29-171]
- EC50 [2]: 139 µM
- EC50 [3]: 26.6 µM

SMILES: O=C(CN1CCOCC1)Nc1ccc2c(-c3cc4ccccc4o3)ccnc2c1O [Analog 60]
- inhibition at 30 µM [1, 4]: 100%
- IC50 [1, 5]: 5 µM

SMILES: CC(=O)Nc1ccc2c(-c3cc(C(F)(F)F)ccc3O)ccnc2c1O [Analog 37]
- inhibition at 30 µM [1, 4]: 100%
- IC50 [1, 5]: 9 µM
- TOP2A inhibition, result in words [1]: excellent inhibitory activity

SMILES: CC(=O)Nc1ccc2c(-c3cccc(O)c3)ccnc2c1O [Analog 33]
- % Inhibition TOP2A (30 μM) [1, 6]: 0.0%

SMILES: CC(=O)Nc1ccc2c(-c3cncnc3)ccnc2c1O [Analog 59]
- % Inhibition TOP2A (30 μM) [1, 6]: 0.0%

SMILES: CC(=O)Nc1ccccc1-c1ccnc2c(O)c(NC(C)=O)ccc12 [Analog 34]
- % Inhibition TOP2A (30 μM) [1, 6]: 1.0%
- TOP2A inhibition, result in words [1]: significant loss of activity

SMILES: CC(=O)Nc1ccc2c(-c3cc4ccccc4s3)ccnc2c1O [Analog 54]
- % Inhibition TOP2A (30 μM) [1, 6]: 0.0%
- TOP2A inhibition, result in words [1]: inhibition was lost

SMILES: CC(=O)Nc1ccc2c(-c3ccc(F)cc3)ccnc2c1O [Analog 30]
- % Inhibition TOP2A (30 μM) [1, 6]: 1.0%
- TOP2A inhibition, result in words [1]: the activity is lost

SMILES: CC(=O)Nc1ccc2c(-c3ccco3)ccnc2c1O [Analog 55]
- % Inhibition TOP2A (30 μM) [1, 6]: 0.0%
- TOP2A inhibition, result in words [1]: significant loss of activity

SMILES: CC(=O)Nc1ccc2c(-c3ccc(C(F)(F)F)cc3)ccnc2c1O [Analog 32]
- inhibition at 30 µM [1, 4]: 97%
- IC50 [1, 5]: 0.7 µM
- TOP2A inhibition, result in words [1]: excellent inhibitory activity

SMILES: CC(=O)Nc1ccc2c(Nc3ccc(C(F)(F)F)cc3)ccnc2c1O [AA-29-158]
- EC50 [2]: 65.1 µM
- EC50 [3]: 1.36 µM

SMILES: CC(=O)Nc1ccc2c(Nc3ccc(O)cc3F)ccnc2c1O [AA-29-172]
- EC50 [2]: 58.5 µM
- EC50 [3]: 45.9 µM

SMILES: CC(=O)Nc1ccc2c(-c3ccccc3)ccnc2c1O [Analog 28]
- % Inhibition TOP2A (30 μM) [1, 6]: 25.0%

SMILES: CC(C)(C)C(=O)Nc1ccc2c(-c3cc(F)ccc3O)ccnc2c1O [Analog 40]
- % Inhibition TOP2A (30 μM) [1, 6]: 0.0%

SMILES: CC(=O)Nc1ccccc1-c1ccnc2c(O)c(NC(=O)CCN3CCOCC3)ccc12 [Analog 43]
- % Inhibition TOP2A (30 μM) [1, 6]: 1.0%
